Laboratory results: patent US7417027B2, “Linear and cyclic melanocortin receptor-specific peptides” (Palatin Technologies, Inc., priority 2001, dated 2008)
Non-standard residues stand in square brackets, D forms with d. Residues, ends and D or L forms follow the SMILES beside them. *: point of attachment. dPhe(4-Cl) = N[C@H](Cc1ccc(Cl)cc1)C(=O)O; d2Nal = N[C@H](Cc1ccc2ccccc2c1)C(=O)O; Nle = CCCC[C@H](N)C(=O)O; Ahp = NCCCCCCC(=O)O; Bn = c1ccc(C*)cc1

Columns and labels:
MC1-R = MC1-R (Mus musculus, UniProt Q01727); assay: Competitive inhibition binding assay, 125I-NDP-alpha-MSH, B-16 mouse melanoma cell membranes; details: for percent inhibition of 125I-NDP-alpha-MSH binding, MC1-R (B-16): B-16 mouse melanoma cell membranes, 0.4 nM 125I-NDP-alpha-MSH, mean of triplicate, peptide concentration not given; for Ki: B-16 cells, read-out: Ki MC-1 B-16; for MC1-R (B-16) inhibition of 125I-NDP-alpha-MSH binding: peptide conc. 1 μM
Sequence of MC1-R (Q01727 whole entry): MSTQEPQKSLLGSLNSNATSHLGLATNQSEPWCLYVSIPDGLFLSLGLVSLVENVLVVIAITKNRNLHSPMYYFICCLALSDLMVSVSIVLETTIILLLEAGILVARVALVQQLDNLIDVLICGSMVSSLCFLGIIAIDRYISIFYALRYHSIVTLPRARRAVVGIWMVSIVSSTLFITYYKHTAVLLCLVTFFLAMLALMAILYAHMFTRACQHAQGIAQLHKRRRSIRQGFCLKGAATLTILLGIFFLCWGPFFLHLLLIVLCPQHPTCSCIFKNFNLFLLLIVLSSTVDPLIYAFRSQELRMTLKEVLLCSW

hMC5-R = target: T1, hMC5-R (Homo sapiens, UniProt P33032); assay: Competitive inhibition binding assay, 125I-NDP-alpha-MSH, hMC5-R membranes; details: for percent inhibition of 125I-NDP-alpha-MSH binding, MC5-R: hMC5-R membranes, 0.4 nM 125I-NDP-alpha-MSH, mean of triplicate, peptide concentration not given; for Ki: membranes, read-out: Ki MC-5 Mem
T1 construct: expressed in transfected cells
T1 sequence (P33032 whole entry): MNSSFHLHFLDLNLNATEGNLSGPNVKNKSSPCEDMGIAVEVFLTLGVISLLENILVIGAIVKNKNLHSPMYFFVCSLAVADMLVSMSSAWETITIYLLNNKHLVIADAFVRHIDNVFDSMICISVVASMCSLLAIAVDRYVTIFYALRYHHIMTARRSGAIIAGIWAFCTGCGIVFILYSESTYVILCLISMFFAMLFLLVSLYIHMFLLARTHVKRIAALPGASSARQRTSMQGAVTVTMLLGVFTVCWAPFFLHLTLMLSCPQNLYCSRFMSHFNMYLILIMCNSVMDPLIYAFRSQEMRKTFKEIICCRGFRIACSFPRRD

MC4-R [1] = target: T2, MC4-R (Homo sapiens, UniProt P32245); assay: Competitive inhibition binding assay, 125I-NDP-alpha-MSH, hMC4-R membranes; parameters: expressed in transfected cells; details: for percent inhibition of 125I-NDP-alpha-MSH binding, MC4-R: hMC4-R membranes, 0.4 nM 125I-NDP-alpha-MSH, mean of triplicate, peptide concentration not given; for Ki: membranes, read-out: Ki MC-4 Mem
T2 sequence (P32245 whole entry): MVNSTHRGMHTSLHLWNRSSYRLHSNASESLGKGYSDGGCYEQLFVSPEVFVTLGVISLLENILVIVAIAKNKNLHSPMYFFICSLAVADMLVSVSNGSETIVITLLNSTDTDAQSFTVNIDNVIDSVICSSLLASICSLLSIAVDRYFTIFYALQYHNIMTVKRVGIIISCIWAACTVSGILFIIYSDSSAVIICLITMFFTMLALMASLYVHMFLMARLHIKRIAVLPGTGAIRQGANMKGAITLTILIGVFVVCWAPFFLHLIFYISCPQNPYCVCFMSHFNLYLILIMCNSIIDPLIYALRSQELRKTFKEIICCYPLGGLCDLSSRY

hMC3-R = target: T3, hMC3-R (Homo sapiens, UniProt P41968); assay: Competitive inhibition binding assay, 125I-NDP-alpha-MSH, hMC3-R membranes; details: for percent inhibition of 125I-NDP-alpha-MSH binding, MC3-R: hMC3-R membranes, 0.4 nM 125I-NDP-alpha-MSH, mean of triplicate, peptide concentration not given; for Ki: membranes, read-out: Ki MC-3 Mem
T3 construct: expressed in transfected cells
T3 sequence (P41968 whole entry): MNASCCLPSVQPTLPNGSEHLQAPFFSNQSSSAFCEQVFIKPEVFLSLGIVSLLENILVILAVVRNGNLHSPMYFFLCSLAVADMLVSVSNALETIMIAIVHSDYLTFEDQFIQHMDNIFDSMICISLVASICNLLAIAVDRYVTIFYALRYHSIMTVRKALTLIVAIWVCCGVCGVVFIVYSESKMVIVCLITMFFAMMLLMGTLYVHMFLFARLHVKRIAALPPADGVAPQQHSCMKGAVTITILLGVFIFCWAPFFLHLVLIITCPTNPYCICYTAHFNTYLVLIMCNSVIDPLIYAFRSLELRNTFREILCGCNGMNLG

MC4-R [2] = target: T2, MC4-R; assay: Functional evaluation: intracellular cAMP accumulation in HEK-293 cells expressing MC4-R (agonist/antagonist status); type: cell-based; parameters: expressed in transfected cells; host or cells: HEK-293; details: with or without alpha-MSH, 1 hour at 37° C
Method: The Ki (nM) of certain peptides were determined, as was the agonist/antagonist status with respect to MC4-R. Functional evaluation of peptides at MC4-R was performed by measuring the accumulation of intracellular cAMP in HEK-293 cells expressing MC4-R. Antagonistic activity was determined by measuring the inhibition of α-MSH-induced cAMP levels following exposure to the compounds. Cells, suspended in Earle's Balanced Salt Solution containing 10 mM HEPES, pH 7.5, 5 mM MgCl2, 1 mM glutamine, 0.1% albumin and 0.6 mM 3-isobutyl-1-methyl-xanthine, a phosphodiesterase inhibitor, were plated in 96 well plates at a density of 0.5×10^5 cells per well. Cells were incubated with the test peptides in the presence or absence of α-MSH for 1 hour at 37° C. cAMP levels were measured by EIA (Amersham) in the cell lysates. Data analysis and EC50 values were determined using nonlinear regression analysis with Prism Graph-Pad software.

Molecule | percent inhibition of 125I-NDP-alpha-MSH binding, MC1-R (B-16) (MC1-R) [%] | percent inhibition of 125I-NDP-alpha-MSH binding, MC5-R (hMC5-R) [%] | percent inhibition of 125I-NDP-alpha-MSH binding, MC4-R (MC4-R [1]) [%] | percent inhibition of 125I-NDP-alpha-MSH binding, MC3-R (hMC3-R) [%] | other results
2′-naphthylacetyl-Ala-D-Phe(4-Cl)-Arg-Trp-NH2 | 45 | – | – | – | –
2′-naphthylacetyl-Tle-D-Phe(4-Cl)-Arg-Trp-NH2 | 67 | – | – | – | –
3′-CF3phenyl-acetyl-Ala-D-Phe(4-Cl)-Arg-Trp-NH2 | – | – | – | 101 | –
4′-biphenyl-acetyl-Ala-D-Phe(4-Cl)-Arg-Trp-NH2 | 0 | 37 | 88 | 54 | –
7′-amino-heptanoyl-Ala-D-Phe(4-Cl)-Arg-Trp-NH2 | 58 | – | – | – | –
7′-amino-heptanoyl-Ser(Bzl)-D-Phe(4-Cl)-Arg-2′,4′-dichlorobenzylamide | – | -6 | – | – | –
7′-amino-heptanoyl-Ser(Bzl)-D-Phe(4-Cl)-Arg-4-phenyl-piperidine-4-carbonamide | 5 | 25 | 13 | 2 | –
7′-amino-heptanoyl-Ser(Bzl)-D-Phe(4-Cl)-Arg-Histamide | – | -2 | – | – | –
7′-amino-heptanoyl-Ser(Bzl)-D-Phe(4-Cl)-Arg-Tic-NH2 | 45 | – | – | – | –
7′-amino-heptanoyl-Ser(Bzl)-D-Phe(4-Cl)-alpha-(N-amidino-4′-piperidine)Gly-Trp-NH2 | 3 | 16 | 26 | 8 | –
C[C@H](NC(=O)[C@H](Cc1c[nH]c2ccccc12)NC(=O)[C@H](CCCNC(=N)N)NC(=O)[C@@H](Cc1ccc(Cl)cc1)NC(=O)[C@H](COCc1ccccc1)NC(=O)CCCCCCN)C(N)=O [7′-amino-heptanoyl-Ser(Bzl)-D-Phe(4-Cl)-Arg-Trp-Ala-NH2] (H-[Ahp]S(Bn)[dPhe(4-Cl)]RWA-NH2) | – | 79 | 100 | 93 | Ki (MC4-R [1]): 0.002 µM; Ki (hMC3-R): 0.037 µM; Ki (hMC5-R): 0.112 µM; HEK-293 (MC4-R) cells Classification (MC4-R [2]): Agonist; Ki (MC1-R): 0.142 µM
N=C(N)NCCC[C@H](NC(=O)[C@@H](Cc1ccc(Cl)cc1)NC(=O)[C@H](COCc1ccccc1)NC(=O)CCCCCCN)C(=O)N[C@@H](Cc1c[nH]c2ccccc12)C(=O)N[C@@H](CC(=O)O)C(N)=O [7′-amino-heptanoyl-Ser(Bzl)-D-Phe(4-Cl)-Arg-Trp-Asp-NH2] (H-[Ahp]S(Bn)[dPhe(4-Cl)]RWD-NH2) | – | 48 | 98 | 73 | Ki (MC4-R [1]): 0.009 µM; Ki (hMC3-R): 0.191 µM; Ki (hMC5-R): 0.596 µM; HEK-293 (MC4-R) cells Classification (MC4-R [2]): Agonist; Ki (MC1-R): 0.76 µM
N=C(N)NCCC[C@H](NC(=O)[C@@H](Cc1ccc(Cl)cc1)NC(=O)[C@H](COCc1ccccc1)NC(=O)CCCCCCN)C(=O)N[C@@H](Cc1c[nH]c2ccccc12)C(=O)N[C@@H](CC(=O)O)C(=O)N[C@@H](Cc1ccccc1)C(N)=O [7′-amino-heptanoyl-Ser(Bzl)-D-Phe(4-Cl)-Arg-Trp-Asp-Phe-NH2] (H-[Ahp]S(Bn)[dPhe(4-Cl)]RWDF-NH2) | 34 | 54 | 100 | 37 | Ki (MC4-R [1]): 0.012 µM; Ki (hMC3-R): 0.318 µM; Ki (hMC5-R): 0.386 µM; HEK-293 (MC4-R) cells Classification (MC4-R [2]): Agonist; Ki (MC1-R): 0.269 µM
Ac-[Nle]AH[dF]RCW-NH2 | – | – | – | – | MC1-R (B-16) inhibition of 125I-NDP-alpha-MSH binding (MC1-R): 101%
Ac-[Nle]AH[dF]RW-NH2 | – | – | – | – | MC1-R (B-16) inhibition of 125I-NDP-alpha-MSH binding (MC1-R): 101%
Ac-[Nle]AH[dF]RWC-NH2 | – | – | – | – | MC3-R inhibition of 125I-NDP-alpha-MSH binding (hMC3-R; peptide conc. 1 μM): 58%

Further lines, with some results ahead:

percent inhibition of 125I-NDP-alpha-MSH binding, MC1-R (B-16) (MC1-R) [%] | percent inhibition of 125I-NDP-alpha-MSH binding, MC5-R (hMC5-R) [%] | percent inhibition of 125I-NDP-alpha-MSH binding, MC4-R (MC4-R [1]) [%] | percent inhibition of 125I-NDP-alpha-MSH binding, MC3-R (hMC3-R) [%] | Molecule | other results
– | 58 | – | – | 2′-naphthylacetyl-D-Phe(4-Cl)-Arg-Trp-NH2 | –
– | – | 58 | – | 2′-naphthylacetyl-Inp-D-Phe(4-Cl)-Arg-Trp-NH2 | –
– | – | – | 58 | 2′-naphthylacetyl-beta-Ala-D-Nal 2-Arg-Trp-NH2 | –
– | -6 | – | – | 3′,4′-Cl2phenylacetyl-Ala-D-Phe(4-Cl)-Arg-2′-(4″-methylphenyl)ethylamide | –
45 | – | – | – | 3′,4′-Cl2phenylacetyl-Ala-D-Phe(4-Cl)-Lys-Trp-NH2 | –
– | 67 | – | – | 3′-CF3phenylacetyl-Ala-D-Phe(4-Cl)-Lys-Trp-NH2 | –
– | – | 45 | – | 4′-phenylbutylaminocarbonyl-D-Phe(4-Cl)-Arg-Trp-NH2 | –
– | – | – | 67 | 7′-amino-heptanoyl-Ser(Bzl)-D-Phe(4-Cl)-Arg-2′-(4″-methylphenyl)ethylamide | –
– | – | 67 | – | 7′-amino-heptanoyl-Ser(Bzl)-D-Phe(4-Cl)-Arg-Trp-Asp-OH | –
– | – | 67 | – | 7′-amino-heptanoyl-Ser(Bzl)-D-Phe(4-Cl)-Arg-Trp-OH | –
-8 | 82 | 100 | 86 | N=C(N)NCCC[C@H](NC(=O)[C@@H](Cc1ccc2ccccc2c1)NC(=O)[C@H](COCc1ccccc1)NC(=O)CCCCCCN)C(=O)N[C@H](Cc1c[nH]c2ccccc12)C(N)=O [7′-amino-heptanoyl-Ser(Bzl)-D-Nal 2-Arg-D-Trp-NH2] (H-[Ahp]S(Bn)[d2Nal]R[dW]-NH2) | Ki (MC4-R [1]): 0.006 µM; Ki (hMC3-R): 0.07 µM; Ki (hMC5-R): 0.09 µM; HEK-293 (MC4-R) cells Classification (MC4-R [2]): Antagonist; Ki (MC1-R): 1.3 µM
4 | 82 | 99 | 93 | N=C(N)NCCC[C@H](NC(=O)[C@@H](Cc1ccc2ccccc2c1)NC(=O)[C@H](COCc1ccccc1)NC(=O)CCCCCCN)C(=O)N[C@@H](Cc1c[nH]c2ccccc12)C(N)=O [7′-amino-heptanoyl-Ser(Bzl)-D-Nal 2-Arg-Trp-NH2] (H-[Ahp]S(Bn)[d2Nal]RW-NH2) | Ki (MC4-R [1]): 0.004 µM; Ki (hMC3-R): 0.05 µM; Ki (hMC5-R): 0.102 µM; HEK-293 (MC4-R) cells Classification (MC4-R [2]): Antagonist; Ki (MC1-R): 1.87 µM
67 | – | – | – | Ph-(CH2)2NH-CO(CH2)2CO-D-Phe(4-Cl)-Arg-Trp-NH2 | –
